The source of these data is patent publication US9808466B2, “Macrocyclic compounds as protein kinase inhibitors” (Fundación Centro Nacional de Investigaciones Oncologicas …, priority 2011, dated 2017).

Like-named read-outs stand apart in the source and are kept apart here. Some results are limits rather than exact numbers.

The target of experiment [1] is T1, PI3K (p110α/p85α) (Homo sapiens, UniProt P42336).
T1 construct: purchased Carna Biosciences 07CBS-0402A
The experiment in a line: PI3K activity assay (ADP Hunter Plus). Format: biochemical. The procedure:
The kinase activity was measured by using the commercial ADP Hunter™ Plus assay available from DiscoveRx (#33-016), which is a homogeneous assay to measure the accumulation of ADP, a universal product of kinase activity. […] Reaction was carried out for 1 hour at 25° C. Reagent A and B were sequentially added to the wells and plates were incubated for 30 min at 37° C. Fluorescence counts were read in a Victor instrument (Perkin Elmer) with the recommended settings (544 and 580 nm as excitation and emission wavelengths, respectively). Values were normalized against the control activity included for each enzyme (i.e., 100% PI3 kinase activity, without compound). These values were plotted against the inhibitor concentration and were fit to a sigmoid dose-response curve by using the Graphad software.

The target in experiment [2] is T2, mTOR (Homo sapiens, UniProt P42345).
T2 construct: purchased Invitrogen PV4754
T2 sequence (P42345 1360-2549 limits assumed): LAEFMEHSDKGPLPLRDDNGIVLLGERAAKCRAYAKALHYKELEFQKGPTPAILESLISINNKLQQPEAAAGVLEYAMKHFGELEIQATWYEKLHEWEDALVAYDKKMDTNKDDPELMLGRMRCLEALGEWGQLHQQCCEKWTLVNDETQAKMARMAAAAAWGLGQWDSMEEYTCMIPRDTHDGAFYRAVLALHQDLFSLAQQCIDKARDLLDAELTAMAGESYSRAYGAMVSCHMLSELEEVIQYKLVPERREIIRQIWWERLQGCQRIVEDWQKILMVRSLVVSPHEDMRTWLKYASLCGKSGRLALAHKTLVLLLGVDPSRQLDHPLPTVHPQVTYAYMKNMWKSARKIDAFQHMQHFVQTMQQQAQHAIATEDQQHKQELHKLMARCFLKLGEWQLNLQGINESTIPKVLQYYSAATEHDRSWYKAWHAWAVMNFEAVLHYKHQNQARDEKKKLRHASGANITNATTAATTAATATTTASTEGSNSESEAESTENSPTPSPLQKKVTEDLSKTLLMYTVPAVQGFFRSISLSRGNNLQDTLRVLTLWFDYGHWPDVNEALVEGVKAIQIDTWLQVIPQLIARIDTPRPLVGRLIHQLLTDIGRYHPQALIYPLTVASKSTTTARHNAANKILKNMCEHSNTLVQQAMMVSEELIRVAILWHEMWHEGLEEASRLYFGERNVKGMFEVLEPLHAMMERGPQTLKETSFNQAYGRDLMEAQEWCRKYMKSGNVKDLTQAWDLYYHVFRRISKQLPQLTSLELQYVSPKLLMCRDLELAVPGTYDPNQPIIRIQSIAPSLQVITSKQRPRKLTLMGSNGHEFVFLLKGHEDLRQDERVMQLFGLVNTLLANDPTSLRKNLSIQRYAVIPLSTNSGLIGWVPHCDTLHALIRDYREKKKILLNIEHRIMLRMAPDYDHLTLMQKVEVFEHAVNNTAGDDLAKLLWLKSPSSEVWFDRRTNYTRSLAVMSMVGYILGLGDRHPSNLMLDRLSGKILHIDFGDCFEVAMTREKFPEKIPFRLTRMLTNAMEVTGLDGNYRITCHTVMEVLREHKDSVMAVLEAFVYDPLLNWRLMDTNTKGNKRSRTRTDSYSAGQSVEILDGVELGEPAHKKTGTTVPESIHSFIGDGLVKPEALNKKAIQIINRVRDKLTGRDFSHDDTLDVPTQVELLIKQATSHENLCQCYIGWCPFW
The experiment in a line: mTOR assay (LanthaScreen kinase activity assay). Format: biochemical. The procedure: The enzymatic mTOR activity was measured using a LanthaScreen™ kinase activity assay (Invitrogen). The enzyme was purchased from Invitrogen (PV4754), as well as the GFP-labeled substrate (4EBP1-GFP; PV4759) and the Tb-anti-p4EBP1(pThr46) antibody (PV4757). The assay was performed in 50 mM HEPES buffer, pH 7.5, containing 1.5 mM MnCl2, 10 mM MgCl2, 1 mM EGTA, 2.5 mM DTT and 0.01% Tween-20. The concentration of the assay components were the following: 0.24 nM mTOR kinase, 400 nM 4EBP1-GFP, […] and serial dilutions of the compound (inhibitor) to be evaluated. After 1 h incubation at room temperature, 20 mM EDTA was used to stop the reaction and terbium-labeled antibody (4 nM) added to detect phosphorylated product. The antibody associates with the phosphorylated product resulting in an increased TR-FRET value. The TR-FRET value (a dimensionless number) was calculated as the ratio of the acceptor signal (GFP, emission at 520 nm) to the donor signal (terbium, emission at 495 nm). Values were plotted against the inhibitor concentration and fitted to a sigmoid dose-response curve using GraphPad software.

For experiment [3], the target named is T3, PIM-1 (Homo sapiens, UniProt P11309).
T3 construct: histidine tag (C); made in house
T3 sequence (P11309 whole entry): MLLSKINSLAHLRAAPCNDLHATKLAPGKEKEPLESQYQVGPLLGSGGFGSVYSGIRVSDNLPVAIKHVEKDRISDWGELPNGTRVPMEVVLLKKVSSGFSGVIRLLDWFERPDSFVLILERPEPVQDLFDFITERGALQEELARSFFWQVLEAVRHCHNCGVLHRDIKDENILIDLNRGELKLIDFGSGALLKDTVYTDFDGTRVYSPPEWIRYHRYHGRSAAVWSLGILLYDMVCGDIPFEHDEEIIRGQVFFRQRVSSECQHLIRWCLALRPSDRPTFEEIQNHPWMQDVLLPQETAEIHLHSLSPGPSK
The experiment in a line: PIM-1 biochemical assay (ADP Hunter). Particulars: PIM1. From the text:
The biochemical assay to measure PIM-1 activity relies on the ADP Hunter assay kit (DiscoveRx Corp., Cat. #90-0077), that determines the amount of ADP as direct product of the kinase enzyme activity.
The enzyme has been expressed and purified in-house as a recombinant human protein with a C-terminal histidine tag. The protein is active and stable.
Assay conditions were as indicated by the kit manufacturers with the following adaptations for the kinase activity step: • Kinase assay buffer and assay volume stay as recommended (15 mM HEPES, pH 7.4, 20 mM NaCl, 1 mM EGTA, 0.02% Tween 20, 10 mM MgCl2 and 0.1 mg/ml bovine γ-globulins/75 μl assay volume) • Incubation time and temperature: 60 min at 30° C. • PIM-1 concentration: 50 pg/μl • ATP concentration: 100 μM • PIM-1 substrate peptide: PIMtide ([…]) (SEQIDNO. 1) • Peptide concentration: 60 μM • Positive control for kinase activity inhibition: 1-10 μM Staurosporine • DMSO concentration have to stay below 2% during the kinase reaction
Assays were performed in either 96 or 384-well plates. The final outcome of the coupled reactions provided by the kit is the release of the fluorescent product Resorufin and has been measured with a multilabel HTS counter VICTOR V (PerkinElmer) using an excitation filter at 544 nm and an emission filter at 580 nm.

Where [4] appears, read: read-out: PI3K alpha activity, IC50 (semi-quantitative class).
[5] abbreviates: read-out: PI3K alpha actual IC50 (in parentheses).
The mark [6] stands for this setting: read-out: mTOR activity, IC50 (semi-quantitative class).
The mark [7] stands for this setting: read-out: mTOR actual IC50 (in parentheses).
The mark [8] stands for this setting: read-out: PIM-1 activity, IC50 (semi-quantitative class).

T1 sequence (P42336 whole entry): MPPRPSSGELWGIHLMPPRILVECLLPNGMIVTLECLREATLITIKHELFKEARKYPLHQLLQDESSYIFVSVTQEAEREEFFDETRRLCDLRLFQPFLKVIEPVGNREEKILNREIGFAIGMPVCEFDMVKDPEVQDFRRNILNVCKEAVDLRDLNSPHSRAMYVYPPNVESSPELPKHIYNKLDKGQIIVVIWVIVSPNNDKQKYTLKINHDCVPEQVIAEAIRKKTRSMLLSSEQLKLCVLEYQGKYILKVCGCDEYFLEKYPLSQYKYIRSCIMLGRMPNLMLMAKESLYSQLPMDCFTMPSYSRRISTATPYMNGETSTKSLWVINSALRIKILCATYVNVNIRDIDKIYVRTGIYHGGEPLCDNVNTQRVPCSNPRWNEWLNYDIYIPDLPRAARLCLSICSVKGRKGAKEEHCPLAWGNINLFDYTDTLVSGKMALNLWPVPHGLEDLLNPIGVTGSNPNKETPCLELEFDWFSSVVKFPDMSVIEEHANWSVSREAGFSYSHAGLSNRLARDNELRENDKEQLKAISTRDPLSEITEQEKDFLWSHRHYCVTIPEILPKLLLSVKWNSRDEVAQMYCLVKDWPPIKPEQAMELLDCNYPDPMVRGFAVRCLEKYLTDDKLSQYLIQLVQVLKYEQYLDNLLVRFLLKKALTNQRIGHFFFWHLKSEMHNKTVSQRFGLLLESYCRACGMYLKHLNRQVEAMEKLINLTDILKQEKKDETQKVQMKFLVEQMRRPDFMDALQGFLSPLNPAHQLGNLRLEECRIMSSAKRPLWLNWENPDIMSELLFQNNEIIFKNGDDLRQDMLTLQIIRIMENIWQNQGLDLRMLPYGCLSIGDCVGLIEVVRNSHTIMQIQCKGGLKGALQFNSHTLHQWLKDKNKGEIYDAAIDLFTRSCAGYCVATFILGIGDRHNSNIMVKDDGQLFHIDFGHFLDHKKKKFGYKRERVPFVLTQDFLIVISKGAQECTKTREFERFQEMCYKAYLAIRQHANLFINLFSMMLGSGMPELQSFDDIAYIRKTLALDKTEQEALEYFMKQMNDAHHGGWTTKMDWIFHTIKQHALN
T1 sequence (P27986 whole entry partner): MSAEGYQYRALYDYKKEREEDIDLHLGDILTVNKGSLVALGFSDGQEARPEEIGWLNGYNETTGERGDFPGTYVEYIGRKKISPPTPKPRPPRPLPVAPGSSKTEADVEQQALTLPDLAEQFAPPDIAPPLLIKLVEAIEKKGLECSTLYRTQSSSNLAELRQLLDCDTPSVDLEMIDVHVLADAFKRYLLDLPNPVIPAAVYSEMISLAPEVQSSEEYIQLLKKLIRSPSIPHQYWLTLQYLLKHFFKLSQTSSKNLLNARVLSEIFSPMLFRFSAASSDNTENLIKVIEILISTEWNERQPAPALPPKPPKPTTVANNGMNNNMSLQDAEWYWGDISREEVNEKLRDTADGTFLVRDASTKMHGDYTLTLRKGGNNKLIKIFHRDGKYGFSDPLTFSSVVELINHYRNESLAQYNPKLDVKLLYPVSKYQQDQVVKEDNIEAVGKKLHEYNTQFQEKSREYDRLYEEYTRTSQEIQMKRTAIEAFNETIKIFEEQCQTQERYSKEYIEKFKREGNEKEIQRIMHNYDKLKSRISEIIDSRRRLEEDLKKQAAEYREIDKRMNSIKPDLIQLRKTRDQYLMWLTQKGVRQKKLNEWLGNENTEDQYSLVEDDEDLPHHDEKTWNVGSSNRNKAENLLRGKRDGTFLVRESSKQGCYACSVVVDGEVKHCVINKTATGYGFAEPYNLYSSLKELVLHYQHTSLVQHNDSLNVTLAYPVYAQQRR

By IC50 is commonly meant the concentration that gives 50% inhibition. Turning to `COc1ncc2cc1NS(=O)(=O)c1cccc(c1)C(=O)NCCn1cc(cn1)-c1cnc3ccc-2nn13` [compound 18], the IC50 in experiment [1] (setting [4]) was less than 100 nM; in experiment [1] (setting [5]) it was 5 nM; in experiment [2] (setting [6]) it was less than 100 nM; in experiment [2] (setting [7]) it was 67 nM; in experiment [3] (setting [8]), greater than 1000 nM.
Turning to `COc1ncc2cc1NS(=O)(=O)c1cccc(c1)C(=O)NCCn1cc(cn1)-c1ccnc3ccc-2cc13` [compound 19], the IC50 in experiment [1] (setting [4]) was less than 100 nM; in experiment [1] (setting [5]) it was 4 nM; in experiment [2] (setting [6]) it was less than 100 nM; in experiment [2] (setting [7]), 21 nM; in experiment [3] (setting [8]) it was greater than 1000 nM.
For the compound `COc1ncc2cc1NS(=O)(=O)c1cccc(c1)C(=O)NCc1cncc(c1)-c1c[nH]c3ncc-2cc13` [compound 20], the IC50 was less than 100 nM in experiment [1] (setting [4]), 80 nM in experiment [1] (setting [5]), 100 to 1000 nM in experiment [2] (setting [6]) and greater than 1000 nM in experiment [3] (setting [8]).
With `COc1ncc2cc1NS(=O)(=O)c1cccc(c1)C(=O)NCc1cncc(c1)-c1ncnc3sc-2cc13` [compound 21], the IC50 is less than 100 nM in experiment [1] (setting [4]), 85 nM in experiment [1] (setting [5]), greater than 1000 nM in experiment [2] (setting [6]) and 100 to 1000 nM in experiment [3] (setting [8]).
On to `COc1ncc2cc1NS(=O)(=O)c1cccc(c1)C(=O)NCCN1CC=C(CC1)c1cnc3ccc-2nn13` [compound 23], for which the IC50 in experiment [1] (setting [4]) is less than 100 nM; in experiment [1] (setting [5]) it was 5 nM; in experiment [2] (setting [6]), less than 100 nM; in experiment [2] (setting [7]), 22 nM; in experiment [3] (setting [8]), greater than 1000 nM.
`COc1ncc2cc1NS(=O)(=O)c1cccc(c1)C(=O)N(C)CC1CCN(CC1)c1ccnc3ccc-2cc13` [compound 24]: the IC50 was less than 100 nM in experiment [1] (setting [4]); 3 nM in experiment [1] (setting [5]); less than 100 nM in experiment [2] (setting [6]); 4 nM in experiment [2] (setting [7]); greater than 1000 nM in experiment [3] (setting [8]).
Turning to `COc1ncc2cc1NS(=O)(=O)c1cccc(c1)C(=O)NCCn1cc(cn1)-c1cnn3ccc-2nc13` [compound 26], the IC50 in experiment [1] (setting [4]) was less than 100 nM; in experiment [1] (setting [5]), 4 nM; in experiment [2] (setting [6]), less than 100 nM; in experiment [2] (setting [7]) it was 40 nM; in experiment [3] (setting [8]) it was greater than 1000 nM.
With `COc1ncc2cc1NS(=O)(=O)c1cccc(c1)C(=O)NCc1cncc(c1)-c1ncnc3c1SC2=C3` [compound 27], the IC50 in experiment [1] (setting [4]) is 100 to 1000 nM; in experiment [2] (setting [6]) it was greater than 1000 nM; in experiment [3] (setting [8]), less than 100 nM; in experiment [3] (read-out: PIM-1 actual IC50 (in parentheses)) it was 40 nM.
With `COc1ncc2cc1NS(=O)(=O)c1cccc(c1)C(=O)NCc1cccc(c1)-c1ncnc3c1SC2=C3` [compound 28], the values for the IC50 in experiment [1] (setting [4]), in experiment [2] (setting [6]) and in experiment [3] (setting [8]) were 100 to 1000 nM, greater than 1000 nM and 100 to 1000 nM, respectively.
As for `COc1ncc2cc1NS(=O)(=O)c1cc(c(F)cc1F)C(=O)NCc1cccc(c1)-c1ccnc3ccc-2cc13` [compound 29], the IC50 in experiment [1] (setting [4]) is less than 100 nM; in experiment [1] (setting [5]) it was 6 nM; in experiment [2] (setting [6]) it was 100 to 1000 nM; in experiment [3] (setting [8]) it was greater than 1000 nM.
Take `COc1ncc2cc1NS(=O)(=O)c1cccc(c1)C(=O)NCc1cc(cs1)-c1ncnc3c1SC2=C3` [compound 74]: the IC50 is greater than 1000 nM in experiment [1] (setting [4]) and 100 to 1000 nM in experiment [3] (setting [8]).
As for `COc1ncc2cc1NS(=O)(=O)c1cccc(c1)C(=O)N[C@H]1CCCN(C1)c1ncnc3c1SC2=C3` [compound 75], the half-inhibitory concentration (IC50) in experiment [1] (setting [4]) and in experiment [3] (setting [8]) was greater than 1000 nM in each case.
Consider `COc1ncc2cc1NS(=O)(=O)c1cccc(c1)C(=O)N[C@@H]1CCCN(C1)c1ncnc3c1SC2=C3` [compound 76], for which the IC50 in experiment [1] (setting [4]) is greater than 1000 nM; in experiment [3] (setting [8]), 100 to 1000 nM.
Take `COc1ncc2cc1NS(=O)(=O)c1cccc(c1)C(=O)NCc1cc(ccn1)-c1cnc3sc-2nn13` [compound 96]: the IC50 in experiment [1] (read-out: PI3K alpha IC50 (in parentheses)) was 8.8 nM; in experiment [1] (read-out: PI3K alpha activity (semi-quantitative IC50)), less than 100 nM; in experiment [2] (read-out: mTOR activity (semi-quantitative IC50)), 100 to 1000 nM.
